These results are taken from PMC7658347, “The cryo-EM structure of a γ-TuSC elucidates architecture and regulation of minimal microtubule nucleation systems” (Nature Communications, 2020).

This test addresses T1, C. albicans γ-TuSC (γ-tubulin small complex; Spc97, Spc98, γ-tubulin/Tub4) (Candida albicans, UniProt O93807).
T1 construct: full-length, codon-optimized genes, expressed in SF21 insect cells; heterotetramer; N-terminal 91 (Spc97) and 149 (Spc98) residues not resolved; with Spindle pole body component (Spc97); Spindle pole body component (Spc98)
T1 sequence (O93807 1-502): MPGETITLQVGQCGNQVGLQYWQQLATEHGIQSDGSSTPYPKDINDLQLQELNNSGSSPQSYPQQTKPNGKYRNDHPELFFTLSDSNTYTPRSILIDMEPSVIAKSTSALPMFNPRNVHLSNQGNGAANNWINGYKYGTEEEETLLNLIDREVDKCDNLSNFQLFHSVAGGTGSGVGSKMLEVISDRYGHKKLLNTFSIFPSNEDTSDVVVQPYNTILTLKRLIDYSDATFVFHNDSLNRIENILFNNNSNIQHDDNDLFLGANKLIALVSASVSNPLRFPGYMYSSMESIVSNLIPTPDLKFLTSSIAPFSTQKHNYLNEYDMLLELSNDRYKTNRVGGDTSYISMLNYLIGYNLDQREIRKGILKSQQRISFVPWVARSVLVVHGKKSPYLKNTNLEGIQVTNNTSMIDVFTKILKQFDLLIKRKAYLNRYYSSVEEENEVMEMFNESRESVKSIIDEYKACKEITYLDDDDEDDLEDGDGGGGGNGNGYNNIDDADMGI
T1 sequence (Q59PZ2 1-871 partner): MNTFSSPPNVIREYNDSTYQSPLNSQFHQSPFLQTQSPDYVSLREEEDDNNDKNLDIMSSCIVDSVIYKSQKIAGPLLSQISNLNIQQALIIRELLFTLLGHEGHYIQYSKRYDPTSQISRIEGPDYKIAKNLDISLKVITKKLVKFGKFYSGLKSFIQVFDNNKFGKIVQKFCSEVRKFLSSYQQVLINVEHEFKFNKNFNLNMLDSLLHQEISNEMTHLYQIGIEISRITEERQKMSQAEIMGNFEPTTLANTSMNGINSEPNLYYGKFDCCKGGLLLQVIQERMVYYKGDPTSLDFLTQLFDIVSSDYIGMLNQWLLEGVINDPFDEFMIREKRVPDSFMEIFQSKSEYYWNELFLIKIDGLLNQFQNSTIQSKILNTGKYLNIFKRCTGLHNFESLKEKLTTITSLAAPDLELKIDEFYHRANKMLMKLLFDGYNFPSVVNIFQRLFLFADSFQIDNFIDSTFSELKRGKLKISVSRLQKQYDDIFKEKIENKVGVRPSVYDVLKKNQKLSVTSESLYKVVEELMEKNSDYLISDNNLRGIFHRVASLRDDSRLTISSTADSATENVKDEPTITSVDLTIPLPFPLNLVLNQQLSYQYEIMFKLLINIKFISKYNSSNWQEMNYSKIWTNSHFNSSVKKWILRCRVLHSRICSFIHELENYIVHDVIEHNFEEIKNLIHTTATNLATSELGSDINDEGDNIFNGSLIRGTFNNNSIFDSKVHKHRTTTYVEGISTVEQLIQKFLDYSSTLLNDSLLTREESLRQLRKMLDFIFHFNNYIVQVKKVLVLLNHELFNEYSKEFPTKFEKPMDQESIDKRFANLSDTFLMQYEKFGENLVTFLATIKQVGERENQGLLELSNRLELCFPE
T1 sequence (A0A1D8PS42 1-785 partner): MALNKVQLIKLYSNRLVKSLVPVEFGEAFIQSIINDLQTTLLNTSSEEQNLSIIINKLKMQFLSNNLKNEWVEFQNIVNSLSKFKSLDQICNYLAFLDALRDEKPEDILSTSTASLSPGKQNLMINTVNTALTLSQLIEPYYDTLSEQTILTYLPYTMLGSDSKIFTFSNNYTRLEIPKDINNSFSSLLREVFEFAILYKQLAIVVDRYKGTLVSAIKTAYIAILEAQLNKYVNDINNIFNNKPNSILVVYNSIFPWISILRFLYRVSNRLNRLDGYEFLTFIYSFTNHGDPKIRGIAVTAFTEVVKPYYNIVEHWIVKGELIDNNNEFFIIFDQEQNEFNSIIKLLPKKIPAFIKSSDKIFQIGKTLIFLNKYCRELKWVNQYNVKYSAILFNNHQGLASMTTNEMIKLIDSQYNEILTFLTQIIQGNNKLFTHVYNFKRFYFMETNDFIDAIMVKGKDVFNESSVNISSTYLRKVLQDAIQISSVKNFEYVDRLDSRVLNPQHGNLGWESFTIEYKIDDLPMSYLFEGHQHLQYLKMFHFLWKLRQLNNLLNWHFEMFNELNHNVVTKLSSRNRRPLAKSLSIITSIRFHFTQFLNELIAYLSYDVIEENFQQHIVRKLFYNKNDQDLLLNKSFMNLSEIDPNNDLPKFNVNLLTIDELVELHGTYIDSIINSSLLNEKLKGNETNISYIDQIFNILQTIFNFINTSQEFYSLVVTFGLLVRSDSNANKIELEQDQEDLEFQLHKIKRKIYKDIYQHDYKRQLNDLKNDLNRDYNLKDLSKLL
Briefly: cryo-EM structure ([…] Å). Conditions: co-purified nucleotide, none added; nucleotide-binding pocket of γ-tubulin; assigned from density lacking γ-phosphate; Table 1 lists 0 ligands in the refined model.

In the case of `Nc1nc2c(ncn2[C@@H]2O[C@H](COP(=O)(O)OP(=O)(O)O)[C@@H](O)[C@H]2O)c(=O)[nH]1` [GDP], the “cryo-EM structure (3.6 Å)” value is given as “Our cryo-EM density of the C. albicans γ-TuSC indicates binding of GDP, rather than GTP”.
